In US6004982A, “4-piperidinyl) H-2-benzopyran derivatives useful as antipsychotic agents” (Hoechst Marion Roussel, Inc., priority 1998, dated 1999) one finds Ki and ED50 data, which are given here for 12 molecules.

Structures can show the parent of a compound that is named as a salt. Where two headings read alike, the source gives them in different places.

Test [1] concerns the target T1, human dopamine D2L receptor (Human D2Long Receptors) (Homo sapiens, UniProt P14416).
T1 construct: expressed in transfected cells
The experiment in a line: Human dopamine D2L receptor binding assay ([3H]N-methyl spiroperidol displacement). The protocol: A single high expressing clonal cell line was isolated and membranes from this cell line were used for receptor binding assays. […] The incubation buffer contained: 50 mM Tris, 120 mM NaCl; 5 mM Kcl; 2 mM CaCl2; 1 mM MgCl2; pH 7.7). […] Incubations were performed at 37° C. in a shaking water bath for 30 min, terminated by rapid filtration through Whatman GF/B filters (presoaked in 0.3% polyethyleneimine), and counted in a liquid scintillation counter. Non-specific binding was defined as that remaining in the presence of 3 μM eticlopride. […] The percent inhibition at each drug concentration was the average of duplicate determinations. […] Cheng-Prisoff determination (Ki's) are performed using Prism software.

Test [2] deals with apomorphine-induced climbing in CD-1 male mice. Kind of test: Climbing mouse assay (CMA), antagonism of apomorphine-induced climbing. Format: in vivo. Conditions: ip, Table I, compounds of the invention, i.p. 30 min before apomorphine 1.5 mg/kg s.c. The protocol: CLIMBING MOUSE ASSAY (CMA)
This test may be used as to identify compounds useful in treating psychosis. Costall, B. et al, Eur. J. Pharm. 50: 39-50 (1978); Protais, P., et al., Psychopharmacology 50:1-6 (1976). […] This effect of apomorphine is antagonized by the D2 receptor antagonist.
CD-1 male mice (20-30 grams) are assigned to groups of 8 and individually placed in wire mesh stick cages and allowed one hour for adaptation to new environment. Apomorphine is injected at 1.5 mg/kg subcutaneously which is a dose which causes climbing in all subjects for thirty minutes. Test compounds are administered intraperitoneally thirty minutes prior to the apomorphine administration at a dose of 20 mg/kg.
For evaluation of climbing, three readings are taken at ten, twenty and thirty minutes after apomorphine administration according to the following scale:
4 paws on bottom (no climbing) 0
2 paws on the wall (rearing) 1
4 paws on the wall (full climb) 2
The climbing scores are individually totaled (maximal score: 6 per mouse over three readings) and total score of the control (vehicle intraperitoneally (ip) and apomorphine subcutaneous) is set to 100%. ED50 values with 95% confidence limits calculated by a linear regression analysis of some of the compounds of the present invention as well as a standard antipsychotic agent (clozapine) are presented in Table 1.

Setting [3] is: Table 2, [3H]N-methyl spiroperidol 0.4 nM, CHO membranes, 37° C., 30 min, pH 7.7, read-out: Ki.

T1 sequence (P14416 whole entry): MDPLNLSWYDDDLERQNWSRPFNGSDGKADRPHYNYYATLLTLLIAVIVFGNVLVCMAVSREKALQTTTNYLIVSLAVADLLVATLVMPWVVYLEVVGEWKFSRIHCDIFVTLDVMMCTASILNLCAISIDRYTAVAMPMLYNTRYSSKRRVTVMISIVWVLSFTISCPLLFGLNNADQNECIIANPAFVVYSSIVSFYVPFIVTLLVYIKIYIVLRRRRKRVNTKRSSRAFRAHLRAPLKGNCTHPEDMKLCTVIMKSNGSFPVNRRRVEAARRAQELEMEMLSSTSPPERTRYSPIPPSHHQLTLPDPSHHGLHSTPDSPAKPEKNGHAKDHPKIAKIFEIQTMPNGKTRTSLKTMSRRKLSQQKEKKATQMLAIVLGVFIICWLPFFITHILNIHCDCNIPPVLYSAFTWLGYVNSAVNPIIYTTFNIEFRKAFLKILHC

In general, Ki refers to the dissociation constant of the complex between target and ligand, obtained from inhibition or displacement. Take `COc1ccc(CCN2CCC([C@@H]3Cc4c(ccc(O)c4O)[C@H](CN)O3)CC2)cc1` (relative stereo) [Example 11, cis-1-(Aminomethyl)-3,4-dihydro-3-[1-[2-(4-methoxyphenyl)ethyl]-4-piperidinyl]-1H-2-benzopyran-5,6-diol Dihydrochloride]: the inhibition constant Ki in test [1] (setting [3]) amounted to 1200 nM.

For `NC[C@@H]1O[C@H](C2CCN(CCCC(c3ccc(F)cc3)c3ccc(F)cc3)CC2)Cc2c1ccc(O)c2O` (relative stereo) [Example 29, cis-1-(Aminomethyl)3-[1-[4,4-bis-(4-fluorophenyl)butyl]-4-piperidinyl]-1H-2-benzopyran-5,6-diol Dihydrochloride Dihydrate], the Ki in test [1] (setting [3]) came out at 91.8 nM.

Turning to `NC[C@@H]1O[C@H](C2CCN(CCOc3ccccc3)CC2)Cc2c1ccc(O)c2O` (relative stereo) [Example 23, cis-1-(Aminomethyl)-3,4-dihydro-3-[1(2-phenoxyethyl)-4-piperidinyl]-1H-2-benzopyran-5,6-diol dihydrochloride 0.4 hydrate], in test [1] (setting [3]), the Ki came out at 500 nM.

`NC[C@@H]1O[C@H](C2CCN(CCCn3c(=O)[nH]c4ccccc43)CC2)Cc2c1ccc(O)c2O` (relative stereo) [Example 34, cis-1-[3-[4-(1-Aminomethyl-3,4-dihydro-5,6-dihydroxy-1H-2-benzopyran-3-yl)-1-piperidinyl]propyl]-1,3-dihydrobenzimidazol-2-one Dihydrochloride 1.33 Hydrate]: the inhibitory constant (Ki) in test [1] (setting [3]) worked out at 432 nM.

As for `CNC[C@@H]1O[C@H](C2CCN(CCc3ccc(Cl)cc3)CC2)Cc2c1ccc(O)c2O` (relative stereo) [Example 15, cis-3-[1-[2-(4-Chlorophenyl)ethyl]-4-piperidinyl]-3,4-dihydro-1-(N-methylaminomethyl)-1H-2-benzopyran-5,6-diol dihydrochloride hemihydrate], the Ki in test [1] (setting [3]) worked out at 413 nM.

With `NC[C@@H]1O[C@H](C2CCN(CCCC(c3ccc(F)cc3)c3ccc(F)cc3)CC2)Cc2c1ccc1c2OC2(CCCCC2)O1` (relative stereo) [Example 39, cis-1-Aminomethyl-5,6-(cyclohexylidenedioxy)-3,4-dihydro-3-[1-[4,4-bis(4-fluorophenyl)butyl]-4-piperidinyl]-1H-2-benzopyran Dioxalate 2.4 Hydrate], in test [1] (setting [3]), the Ki was 153 nM.

Turning to `COc1cc(C(C)=O)ccc1OCCCN1CCC([C@@H]2Cc3c(ccc(O)c3O)[C@H](CN)O2)CC1` (relative stereo) [Example 31, cis-1-(3-[3-[4-[1-(Aminomethyl)-3,4-dihydro-5,6-dihydroxy-1H-2-benzopyran-3-yl]-1-piperidinyl]propoxy]-3-methoxyphenyl)ethanone Dihydrochloride Dihydrate], in test [1] (setting [3]), the inhibition constant (Ki) was 1100 nM.

Regarding `NC[C@@H]1O[C@H](C2CCNCC2)Cc2c1ccc(O)c2O` (relative stereo) [Example 33, cis-1-(Aminomethyl)-3,4-dihydro-3-(4-piperidinyl)-1H-2-benzopyran-5,6-diolDihydrochloride 0.3 Hydrate], the inhibition constant (Ki) in test [1] (setting [3]) stood at 3900 nM.

In turn, `COc1cc(C(C)=O)ccc1OCCCN1CCC([C@@H]2Cc3c(ccc4c3OC3(CCCCC3)O4)[C@H](CNC=O)O2)CC1` (relative stereo) [Example 30, cis-N-[3-[1-[3-(4-acetyl-2-methoxyphenoxy)propyl]-4-piperidinyl]-5,6-(cyclohexylidenedioxy)-3,4-dihydro-1H-2-benzopyran-1-ylmethyl]formamide oxalate Trihydrate] yielded an inhibitory constant (Ki) in test [1] of 857 nM.

One may read the ED50 as the dose that gives a 50% effect, or the effect in half of the subjects. A high value points to a need for a large dose. In the case of `NC[C@@H]1O[C@H](C2CCN(CCc3ccccc3)CC2)Cc2c1ccc(O)c2O` (relative stereo) [Example 4D, cis-1-(Aminomethyl)-3,4-dihydro-3-[1-(2-phenylethyl)-4-piperidinyl]-1H-2-benzopyran-5,6-diol Dihydrobromide Sesquihydrate], the Ki in test [1] (setting [3]) was determined as 1090 nM. The same molecule yielded an ED50 in test [2] of 8.1 mg/kg.

Turning to `O=CNC[C@@H]1O[C@H](C2CCN(CCc3cccs3)CC2)Cc2c1ccc1c2OC2(CCCCC2)O1` (relative stereo) [Example 24, cis-N-[5,6-(cyclohexylidinedioxy)-3,4-dihydro-3-[1(2-(thiophen-2-yl)ethyl)-4-piperidinyl]-1H-2-benzofuran-1-ylmethyl]formamide], the inhibition constant (Ki) in test [1] worked out at 506 nM.

For the molecule `NC[C@@H]1O[C@H](C2CCN(CCc3ccc(Cl)cc3)CC2)Cc2c1ccc(O)c2O` (relative stereo) [Example 14, cis-1-(Aminomethyl)-3-[1-[2-(4-chlorophenyl)ethyl]-3,4-dihydro-4-piperidinyl]-1H-2-benzopyran-5,6-diol dihydrochloride], the inhibitory constant (Ki) in test [1] (setting [3]) was found to be 505 nM.
